Measurements from patent publication US12064426B2, “Selective inhibitors of ROCK1 and ROCK2 protein kinases and uses thereof” (GENOSCO Inc., priority 2021, dated 2024).

Key:
[1] = molecular target: T1, Recombinant ROCK1 (amino acids 1-477) (Homo sapiens, UniProt Q13464); experiment: ROCK inhibition assay, LANCE Ultra TR-FRET kinase assay (ROCK1); type: biochemical; conditions: 1 μM ATP, 50 nM ULight-CREBtide substrate
T1 construct: Recombinant ROCK1 (amino acids 1-477); by word order, ROCK1 from Carna Biosciences
T1 sequence (Q13464 1-477): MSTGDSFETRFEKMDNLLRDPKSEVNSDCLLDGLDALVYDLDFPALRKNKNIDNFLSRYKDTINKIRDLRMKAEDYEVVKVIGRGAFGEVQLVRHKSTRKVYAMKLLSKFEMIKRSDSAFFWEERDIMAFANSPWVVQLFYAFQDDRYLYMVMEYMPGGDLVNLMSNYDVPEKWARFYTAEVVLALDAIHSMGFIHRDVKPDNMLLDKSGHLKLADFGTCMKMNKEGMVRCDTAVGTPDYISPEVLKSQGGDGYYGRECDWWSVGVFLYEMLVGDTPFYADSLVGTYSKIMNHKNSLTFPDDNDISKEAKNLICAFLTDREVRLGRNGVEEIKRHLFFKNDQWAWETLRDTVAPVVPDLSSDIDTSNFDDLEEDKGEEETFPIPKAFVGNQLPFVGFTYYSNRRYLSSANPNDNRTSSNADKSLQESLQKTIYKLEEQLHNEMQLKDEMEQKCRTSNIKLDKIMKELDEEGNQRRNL
Procedure, shortened: (§1)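 LANCE Ultra TR-FRET kinase assay with recombinant ROCK1 (aa 1-477) or ROCK2 (aa 5-554), 50 nM ULight-CREBtide and ATP at 1 μM (ROCK1) or 4 μM (ROCK2) in HEPES pH 7.5 with MgCl2, 1 h at room temperature. EDTA stop with Eu anti-phospho-CREB Ser133 antibody; 665/615 nm read gives IC50.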

[2] = molecular target: T2, Recombinant ROCK2 (amino acids 5-554) (Homo sapiens, UniProt O75116); experiment: ROCK inhibition assay, LANCE Ultra TR-FRET kinase assay (ROCK2); type: biochemical; conditions: 4 μM ATP, 50 nM ULight-CREBtide substrate
T2 construct: ROCK2 (amino acids 5-554); by word order, ROCK2 from SignalChem
T2 sequence (O75116 5-554): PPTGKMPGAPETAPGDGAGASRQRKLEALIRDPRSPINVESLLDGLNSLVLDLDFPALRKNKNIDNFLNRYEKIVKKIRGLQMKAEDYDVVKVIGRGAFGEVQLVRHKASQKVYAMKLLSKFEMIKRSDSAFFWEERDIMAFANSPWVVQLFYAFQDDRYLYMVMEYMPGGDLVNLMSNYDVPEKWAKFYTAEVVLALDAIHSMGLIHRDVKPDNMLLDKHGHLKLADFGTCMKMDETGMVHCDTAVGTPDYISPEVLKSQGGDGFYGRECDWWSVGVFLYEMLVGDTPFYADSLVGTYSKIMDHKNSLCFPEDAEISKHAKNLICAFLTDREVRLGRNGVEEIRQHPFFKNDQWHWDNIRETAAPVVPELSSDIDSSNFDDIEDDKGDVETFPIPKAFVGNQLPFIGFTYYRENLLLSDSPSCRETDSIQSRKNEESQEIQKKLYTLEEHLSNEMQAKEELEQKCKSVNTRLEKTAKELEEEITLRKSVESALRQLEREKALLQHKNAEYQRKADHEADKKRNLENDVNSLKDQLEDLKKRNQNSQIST
Procedure, shortened: as §1

| SMILES | IC50 [1] [nM] | IC50 [2] [nM] |
| --- | --- | --- |
| Cc1nocc1-c1ccc2c(=O)n([C@H](C)c3cccc(C(=O)NCCN4CCOCC4)c3)cnc2c1 [Compound 474] | 11 to 100 | < 10 |
| Cc1nocc1-c1ccc2c(=O)n([C@H](C)c3cccc(C(=O)NCC(F)(F)F)c3)cnc2c1 [Compound 475] | 11 to 100 | < 10 |
| CNC(=O)c1cccc([C@@H](C)n2cnc3cc(-c4ccnn4C)ccc3c2=O)c1 [Compound 476] | 11 to 100 | < 10 |
| [2H]C([2H])([2H])NC(=O)c1cccc([C@@H](C)n2cnc3cc(-c4ccnn4C)ccc3c2=O)c1 [Compound 477] | 11 to 100 | < 10 |
| C[C@H](c1cccc(C(=O)N[C@H]2C[C@@H](O)C2)c1)n1cnc2cc(-c3ccnn3C)ccc2c1=O [Compound 478] | 11 to 100 | < 10 |
| C[C@H](c1cccc(C(=O)NCC2COC2)c1)n1cnc2cc(-c3ccnn3C)ccc2c1=O [Compound 479] | 11 to 100 | < 10 |
| C[C@H](c1cccc(C(=O)NCCO)c1)n1cnc2cc(-c3ccnn3C)ccc2c1=O [Compound 480] | 101 to 500 | 10 to 100 |
| CNC(=O)c1cccc([C@@H](C)n2cnc3cc(-c4ccnc(N)c4)ccc3c2=O)c1 [Compound 481] | 101 to 500 | 10 to 100 |
| C[C@H](c1cccc(C(=O)N(C)C)c1)n1cnc2cc(-c3ccnc(N)c3)ccc2c1=O [Compound 482] | > 501 | > 500 |
| O=c1c2ccc(-c3ccncc3)cc2ncn1C(CO)c1cccc(Cl)c1 (stereo not drawn) [Compound 483, 3-(1-(3-chlorophenyl)-2-hydroxyethyl)-7-(pyridin-4-yl)quinazolin-4(3H)-one] | 101 to 500 | 10 to 100 |
| Nc1cc(-c2ccc3c(=O)n(C(CO)c4cccc(Cl)c4)cnc3c2)ccn1 (stereo not drawn) [Compound 484] | 101 to 500 | 10 to 100 |
| Cc1[nH]ncc1-c1ccc2c(=O)n(C(CO)c3cccc(Cl)c3)cnc2c1 (stereo not drawn) [Compound 485] | 11 to 100 | 10 to 100 |
| O=c1c2ccc(-c3cn[nH]c3Cl)cc2ncn1C(CO)c1cccc(Cl)c1 (stereo not drawn) [Compound 487] | 11 to 100 | 10 to 100 |
| Cc1nocc1-c1ccc2c(=O)n(C(CO)c3cccc(Cl)c3)cnc2c1 (stereo not drawn) [Compound 488] | 101 to 500 | 10 to 100 |
| COc1cccc(C(CO)n2cnc3cc(-c4cn[nH]c4C)ccc3c2=O)c1 (stereo not drawn) [Compound 489] | 11 to 100 | 10 to 100 |
| COc1cccc(C(CO)n2cnc3cc(-c4cn[nH]c4C(F)(F)F)ccc3c2=O)c1 (stereo not drawn) [Compound 490] | 11 to 100 | 10 to 100 |
| COc1cccc(C(CO)n2cnc3cc(-c4cn[nH]c4Cl)ccc3c2=O)c1 (stereo not drawn) [Compound 491] | 11 to 100 | 10 to 100 |
| NCC(c1cccc(Cl)c1)n1cnc2cc(-c3ccnc(F)c3)ccc2c1=O (stereo not drawn) [Compound 492, 3-(2-amino-1-(3-chlorophenyl)ethyl)-7-(2-fluoropyridin-4-yl)quinazolin-4(3H)-one] | 11 to 100 | 10 to 100 |
| NCC(c1cccc(Cl)c1)n1cnc2cc(-c3ccnc(N)c3)ccc2c1=O (stereo not drawn) [Compound 493] | 11 to 100 | < 10 |

| SMILES | IC50 [1] [nM] | IC50 [2] [nM] |
| --- | --- | --- |
| Cc1[nH]ncc1-c1ccc2c(=O)n(C(CN)c3cccc(Cl)c3)cnc2c1 (stereo not drawn) [Compound 494] | < 10 | < 10 |
| NCC(c1cccc(Cl)c1)n1cnc2cc(-c3cn[nH]c3Cl)ccc2c1=O (stereo not drawn) [Compound 496] | < 10 | < 10 |
| Cc1nocc1-c1ccc2c(=O)n(C(CN)c3cccc(Cl)c3)cnc2c1 (stereo not drawn) [Compound 497] | 11 to 100 | < 10 |
| COc1cccc(C(CN)n2cnc3cc(-c4cn[nH]c4C)ccc3c2=O)c1 (stereo not drawn) [Compound 498] | < 10 | < 10 |
| COc1cccc(C(CN)n2cnc3cc(-c4cn[nH]c4C(F)(F)F)ccc3c2=O)c1 (stereo not drawn) [Compound 499] | < 10 | < 10 |
| COc1cccc(C(CN)n2cnc3cc(-c4cn[nH]c4Cl)ccc3c2=O)c1 (stereo not drawn) [Compound 500] | < 10 | < 10 |
| N#Cc1cccc(C(CN)n2cnc3cc(-c4ccnc(N)c4)ccc3c2=O)c1 (stereo not drawn) [Compound 501] | > 501 | 100 to 500 |
| N#Cc1cccc(C(CN)n2cnc3cc(-c4ccnc(F)c4)ccc3c2=O)c1 (stereo not drawn) [Compound 502, 3-(2-amino-1-(7-(2-fluoropyridin-4-yl)-4-oxoquinazolin-3(4H)-yl)ethyl)benzonitrile] | > 501 | 100 to 500 |
| N#Cc1cccc(C(CN)n2cnc3cc(-c4cn[nH]c4C(F)(F)F)ccc3c2=O)c1 (stereo not drawn) [Compound 503] | > 501 | 100 to 500 |
| N#Cc1cccc(C(CN)n2cnc3cc(-c4cn[nH]c4Cl)ccc3c2=O)c1 (stereo not drawn) [Compound 504] | > 501 | 100 to 500 |
| NCC(c1cccc(C(N)=O)c1)n1cnc2cc(-c3ccnc(N)c3)ccc2c1=O (stereo not drawn) [Compound 506] | > 501 | 100 to 500 |
| NCC(c1cccc(C(N)=O)c1)n1cnc2cc(-c3cn[nH]c3C(F)(F)F)ccc2c1=O (stereo not drawn) [Compound 507] | > 501 | 100 to 500 |
| NCC(c1cccc(C(N)=O)c1)n1cnc2cc(-c3cn[nH]c3Cl)ccc2c1=O (stereo not drawn) [Compound 508] | > 501 | 100 to 500 |
| CNC(=O)c1cccc([C@@H](C)n2cnc3cc(-c4cn[nH]c4Br)ccc3c2=O)c1 [Compound 509, (R)-3-(1-(7-(5-bromo-1H-pyrazol-4-yl)-4-oxoquinazolin-3(4H)-yl)ethyl)-N-methylbenzamide] | 11 to 100 | < 10 |
| [2H]C([2H])([2H])NC(=O)c1cccc(Cn2cnc3cc(-c4cn[nH]c4Br)ccc3c2=O)c1 [Compound 511] | 11 to 100 | < 10 |
| CNC(=O)c1cccc(Cn2ccc3cc(-c4cn[nH]c4Br)ccc3c2=O)c1 [Compound 512] | 11 to 100 | < 10 |
| [2H]C([2H])([2H])NC(=O)c1cccc(Cn2ccc3cc(-c4cn[nH]c4Br)ccc3c2=O)c1 [Compound 513] | 11 to 100 | < 10 |
| C[C@H](c1cccc(C(=O)NC2COC2)c1)n1cnc2cc(-c3cn[nH]c3Br)ccc2c1=O [Compound 514] | 11 to 100 | < 10 |
| C[C@H](c1cccc(C(=O)NC2CC2)c1)n1cnc2cc(-c3cn[nH]c3Br)ccc2c1=O [Compound 515] | 11 to 100 | < 10 |

| SMILES | IC50 [1] [nM] | IC50 [2] [nM] |
| --- | --- | --- |
| C[C@H](c1cccc(C(=O)NCc2ccc(F)nc2)c1)n1cnc2cc(-c3cn[nH]c3Br)ccc2c1=O [Compound 516] | < 10 | < 10 |
| C[C@H](c1cccc(C(=O)Nc2ccc(F)cc2)c1)n1cnc2cc(-c3cn[nH]c3Br)ccc2c1=O [Compound 517] | 11 to 100 | < 10 |
| CNC(=O)c1cccc([C@@H](C)n2cnc3cc(-c4cn[nH]c4N)ccc3c2=O)c1 [Compound 518] | 11 to 100 | < 10 |
| [2H]C([2H])([2H])NC(=O)c1cccc([C@@H](C)n2cnc3cc(-c4cn[nH]c4N)ccc3c2=O)c1 [Compound 519] | 11 to 100 | < 10 |
| C[C@H](c1cccc(C(=O)NC2COC2)c1)n1cnc2cc(-c3cn[nH]c3N)ccc2c1=O [Compound 520] | 11 to 100 | < 10 |
| C[C@H](c1cccc(C(=O)NC2CC2)c1)n1cnc2cc(-c3cn[nH]c3N)ccc2c1=O [Compound 521] | 11 to 100 | < 10 |
| C[C@H](c1cccc(C(=O)NCc2ccc(F)nc2)c1)n1cnc2cc(-c3cn[nH]c3N)ccc2c1=O [Compound 522] | < 10 | < 10 |
| Cc1[nH]ncc1-c1ccc2c(c1)NCN([C@H](CO)c1cccc(Cl)c1)C2=O [Compound 523, (S)-3-(1-(3-chlorophenyl)-2-hydroxyethyl)-7-(5-methyl-1H-pyrazol-4-yl)-2,3-dihydroquinazolin-4(1H)-one] | > 501 | 100 to 500 |
| O=C1c2ccc(-c3cn[nH]c3C(F)(F)F)cc2NCN1[C@H](CO)c1cccc(Cl)c1 [Compound 524] | > 501 | 100 to 500 |
| O=C1c2ccc(-c3cn[nH]c3Cl)cc2NCN1[C@H](CO)c1cccc(Cl)c1 [Compound 525] | > 501 | 100 to 500 |
| Cn1nccc1-c1ccc2c(c1)NCN([C@H](CO)c1cccc(Cl)c1)C2=O [Compound 526] | > 501 | > 500 |
| COc1cccc([C@@H](CO)N2CNc3cc(-c4ccncc4)ccc3C2=O)c1 [Compound 527] | > 501 | 100 to 500 |
| COc1cccc([C@@H](CO)N2CNc3cc(-c4cn[nH]c4C(F)(F)F)ccc3C2=O)c1 [Compound 528] | > 501 | 100 to 500 |
| COc1cccc([C@@H](CO)N2CNc3cc(-c4cnoc4C)ccc3C2=O)c1 [Compound 529] | > 501 | > 500 |
| COc1cccc([C@@H](CO)N2CNc3cc(-c4cn[nH]c4Cl)ccc3C2=O)c1 [Compound 530] | > 501 | 10 to 100 |
| COc1cccc([C@@H](CO)N2CNc3cc(-c4ccnn4C)ccc3C2=O)c1 [Compound 531] | > 501 | 100 to 500 |
| CNC(=O)c1cccc(Cn2cc(C(C)O)c3cc(-c4c[nH]nc4C(F)(F)F)ccc3c2=O)c1 (stereo not drawn) [Compound 532, 3-((4-(1-hydroxyethyl)-1-oxo-6-(3-(trifluoromethyl)-1H-pyrazol-4-yl)isoquinolin-2(1H)-yl)methyl)-N-methylbenzamide] | < 10 | < 10 |
| CC(O)c1cn(Cc2cccc(C(=O)NC3CC3)c2)c(=O)c2ccc(-c3c[nH]nc3C(F)(F)F)cc12 (stereo not drawn) [Compound 533] | 101 to 500 | 10 to 100 |
| CC(O)c1cn(Cc2cccc(C(=O)NC3COC3)c2)c(=O)c2ccc(-c3c[nH]nc3C(F)(F)F)cc12 (stereo not drawn) [Compound 534] | 11 to 100 | < 10 |
